PubChem BioAssay (NCI)
Where “and” joins values, the source holds several entries; their conditions need not be identical. Equal values may be shown once.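 The compound was tested at five concentrations on cells cultured in 96-well plates, with a 48-hour exposure period. Here, GI50 denotes the concentration required for 50% inhibition of growth. TGI: concentration producing complete growth inhibition.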

What was measured:
Assay in all cases: DTP human tumour cell line panel, 48 h
HOP-18 NSCLC = system: HOP-18 NSCLC
LXFL 529 NSCLC = system: LXFL 529 NSCLC
DMS 114 small cell lung = system: DMS 114 small cell lung
DU-145 prostate = system: DU-145 prostate
NCI/ADR-RES ovarian = system: NCI/ADR-RES ovarian
MDA-N = system: MDA-N
RXF-631 renal = system: RXF-631 renal

Row | SMILES | TGI (HOP-18 NSCLC) [µM] | TGI (LXFL 529 NSCLC) [µM] | TGI (DMS 114 small cell lung) [µM] | GI50 (DU-145 prostate) | TGI (DU-145 prostate) | GI50 (NCI/ADR-RES ovarian) | TGI (NCI/ADR-RES ovarian) | GI50 (MDA-N) [µM] | TGI (MDA-N) | TGI (RXF-631 renal) [µM]
1 | Clc1cc2nsnc2c(Cl)n1 | 31.7 | 27.8 | 33.5 | – | – | – | – | – | – | –
2 | C#Cc1ccc(-n2c(/C=C/c3ccc(C(F)(F)F)cc3)nc3ncccc3c2=O)cc1 | – | – | – | 3.76 µM | 12.2 µM | 2.5 µM | 7 µM | – | – | –
3 | CCCCCN(CCCCC)CC(O)c1cc(C)c2ccc3cc(C(C)C)ccc3c2c1 (stereo not drawn) | – | – | – | 1.89 µM | 3.37 µM | 2.16 µM | 4.61 µM | – | – | –
4 | O=S(=O)(NC1=NCCN1C(=S)SN1CCn2c1nsc2=S)c1ccc(OC(F)(F)F)cc1 | – | – | – | 2.69 µM | 12.1 µM | 20.5 µM | > 100 µM | – | – | –
5 | CC[C@@]1(O)C[C@H](OC2CC(N(C)C)C(O)C(C)O2)c2c(O)c3c(c(O)c2[C@H]1OC1CC(N(C)C)C(O)C(C)O1)C(=O)c1cccc(O)c1C3=O (stereo partly drawn) | – | – | – | < 0.01 µM | 11.3 µM | < 0.01 µM | 0.842 µM and 0.334 µM | < 0.01 | 0.156 µM and 0.113 µM | –
6 | COc1cc(Cc2cnc(/N=C3\C(=O)N(CN4CCN(c5c(F)cc6c(=O)c(C(=O)O)cn(C7CC7)c6c5OC)CC4C)c4ccc(F)cc43)nc2N)cc(OC)c1OC (stereo not drawn) | – | – | – | – | – | 11.8 µM | 29.4 µM | – | – | –
7 | O=C(Nc1ccccc1)NS(=O)(=O)c1ccc(-n2nc3c(c2-c2cccs2)Cc2ccccc2-3)cc1 | – | – | – | 28.6 µM | 96.2 µM | 16.1 µM | 43 µM | – | – | –
8 | Cn1c2ccccc2c2c(Nc3ccccc3)c3ccccc3nc21 | – | – | – | 9.35 µM | 50.4 µM | 54.1 µM | > 100 µM | – | – | –
9 | CCC(CO)Nc1nc2ccc(Cl)cc2c2ccccc12 (stereo not drawn) | – | – | – | 12.8 µM | 25.4 µM | 5.95 µM | 21.4 µM | – | – | –
10 | O=C(O)CCc1coc2ccc(O)cc12 | > 100 | > 100 | > 100 | – | – | – | – | – | – | –
11 | Cc1nc2ccccc2c(=O)n1-c1ccccc1I | – | > 100 | > 100 | – | – | – | – | – | – | –
12 | COC1CCC2C(NS(=O)(=O)c3ccc(C)cc3)CCCC2O1 (stereo not drawn) (tested in a mixture with another compound) | – | – | 27.9 | – | – | – | – | – | – | > 34.5
13 | Cc1ccc2c(=O)cc(-c3ccc(F)cc3)[nH]c2n1 | – | – | – | – | > 100 µM | – | 86.9 µM | – | 32.1 µM | –
14 | CC1=C(C(=O)Nc2ccc(Cl)c(Cl)c2)C(c2cccc(Oc3ccccc3)c2)NC(=S)N1 (stereo not drawn) | – | – | – | 6.88 µM | 13.3 µM | 10.2 µM | 17.4 µM | – | – | –
15 | O=C(/C=C/c1ccccc1)NC1C=Nc2ccc(Cl)cc2NC1=O (stereo not drawn) | > 100 | > 100 | 30.4 | – | – | – | – | – | – | > 100
16 | O=C1C2C(C(=O)N1OS(=O)(=O)c1ccccc1)N(Cc1ccccc1)C(=O)N2Cc1ccccc1 (stereo not drawn) | – | > 100 | > 100 | – | – | – | – | – | – | > 100
17 | O=C(O)CSc1ccc([N+](=O)[O-])cc1[N+](=O)[O-] | – | – | – | – | > 100 µM | – | > 100 µM | – | > 100 µM | –
18 | O=C(Nc1ccc(Cl)c(Cl)c1)Nc1ccc(Cl)c(Cl)c1 | – | – | – | 4.03 µM and 4.34 µM | 14.4 µM and 16.2 µM | 3.03 µM and 2.7 µM | 12.9 µM and 14 µM | – | – | –

Row | SMILES | TGI (HOP-18 NSCLC) [µM] | TGI (LXFL 529 NSCLC) [µM] | TGI (DMS 114 small cell lung) [µM] | GI50 (DU-145 prostate) | TGI (DU-145 prostate) | GI50 (NCI/ADR-RES ovarian) | TGI (NCI/ADR-RES ovarian) | GI50 (MDA-N) [µM] | TGI (MDA-N) | TGI (RXF-631 renal) [µM]
19 | CN1C(=O)C(C)(C)C2(SC(C)(C)C2(C)C)N(C)C1=S (stereo not drawn) | > 100 | > 100 | > 100 | – | – | – | – | – | – | –
20 | O=C1CC(c2ccc3c(c2)OCO3)Nc2ccccc21 (stereo not drawn) | – | – | – | 3.1 µM | 12.6 µM | 11.8 µM | 39.9 µM | – | – | –
21 | NC(=O)c1sc(-n2cnc3ccccc32)cc1OCc1ccccc1Br | – | – | – | 2.02 µM | 7.19 µM | 0.869 µM | > 25 µM | – | – | –
22 | CC1(C)CCc2c(c3c(c4c(=O)c(O)c(-c5ccc(O)cc5)oc24)OC(C)(C)CC3)O1 | – | – | – | 85.1 µM | > 100 µM | 55.7 µM | > 100 µM | – | – | –
23 | COc1ccc(C(=O)Cn2c(C(=O)c3ccccc3)nc(-c3ccc(OC)cc3)c2-c2ccc(OC)cc2)cc1 | – | – | – | > 100 µM | > 100 µM | > 100 µM | > 100 µM | – | – | –
24 | Clc1ccc2c(NCCCCNc3nc(N4CCCCC4)nc4ccccc34)ccnc2c1 | – | – | – | 3.8 µM | 15.2 µM | 2.68 µM | 9.18 µM | – | – | –
25 | C/C(CC(=O)CCC(=O)Nc1cccc(C(F)(F)F)c1)=N\NC(=O)NN | > 100 | > 100 | > 100 | – | – | – | – | – | – | > 100
26 | COC(=O)CC1CCN(C#N)CC1CC[N+](=O)[O-] (stereo not drawn) | > 100 | > 100 | > 100 | – | – | – | – | – | – | > 100
27 | NC(Cc1c[nH]c2c(O)cccc12)C(=O)O (stereo not drawn) | – | – | – | > 100 µM | > 100 µM | > 100 µM | > 100 µM | – | – | –
28 | Cc1ccc(NC2=C(Cl)C(=O)N(Cc3ccccc3)C2=O)cc1O | – | – | – | 60.1 µM | > 100 µM | 30.8 µM | > 100 µM | – | – | –
29 | N#CC(c1ccc(Cl)cc1)c1cccc(C(C#N)c2ccc(Cl)cc2)n1 (stereo not drawn) | – | > 100 | – | – | – | – | – | – | – | –
30 | CCOc1ccc(NC(=O)C(=O)CC(=O)c2c[n+](=O)c3cc(C)c(C)cc3n2[O-])cc1 | > 100 | > 100 | > 100 | – | – | – | – | – | – | > 100
31 | O=C(/C=C/C12c3ccccc3C(c3ccccc31)C1C(=O)NC(=O)C12)c1ccncc1 (stereo not drawn) | – | – | – | 2.8 µM | 11.8 µM | 2.31 µM | 6.71 µM | – | – | –
32 | CC1(c2ccc(F)cc2)C(C#N)C(=O)NC(=O)C1C#N (stereo not drawn) | – | > 100 | > 100 | – | – | – | – | – | – | > 100
33 | Cc1ccc(N=Nc2ccc(N(CCC#N)CCC#N)cc2C)c(Br)c1 | > 100 | > 100 | > 100 | – | – | – | – | – | – | 81.3
34 | CN(C)C(=N)c1ccccc1 | – | > 100 | > 100 | – | – | – | – | – | – | –
35 | CC(C)C/C(CC(=O)CCC(=O)Nc1ccccc1[N+](=O)[O-])=N\NC(=O)c1cc2ccccc2cc1O | > 100 | > 100 | 86.8 | – | – | – | – | – | – | > 100
36 | OCc1ccc(N2CCC2c2ccc(F)cc2)cc1Cl (stereo not drawn) | – | – | – | 35.8 µM | > 100 µM | 23.7 µM | > 88.8 µM | – | – | –
